Test results: publication PMC9693575, “Isopropyl Amino Acid Esters Ionic Liquids as Vehicles for Non-Steroidal Anti-Inflammatory Drugs in Potential Topical Drug Delivery Systems with Antimicrobial Activity” (International Journal of Molecular Sciences, 2022)
Read-outs that look alike come from different tables or passages of the source.

Experiments:
[1] = tested on: Staphylococcus epidermidis; experiment: Disc diffusion antimicrobial susceptibility test, Staphylococcus epidermidis; type: cell-based; design: key to Inhibition diameter: -: no growth of the organism
Protocol: (§1) The plates were incubated for 24 h at 37 °C.

Escherichia coli = experiment: Disc diffusion antimicrobial susceptibility test, Escherichia coli; type: cell-based; design: key to Inhibition diameter: -: no growth of the organism
Protocol: as §1

[2] = cited from earlier work; for TDTGmax, maximum decomposition temperature: DTG
[3] = cited from earlier work
Micrococcus Luteus = experiment: Disc diffusion antimicrobial susceptibility test, Micrococcus luteus; type: cell-based; design: key to Inhibition diameter: -: no growth of the organism
[4] = pKa / pKB by potentiometric acid-base titration and formation constant log(KS); settings: calculated from pKA of acid and pKB of base
Protocol: Determination of formation constant pKs
Zabrze, Poland). For the measurement of pKA acids, 0.1 M NaOH was used. In order to
ester hydrochloride, HCl aqueous solution, was added in an amount that allowed reach-
After that, an acid-base titration was made out by adding dropwise 5 mM

[5] = n-octanol-water partition coefficient (logP), shake flask method; type: physicochemical; settings: n-octanol-water, shake flask; read-out: LogP
[6] = Solubility in water and phosphate buffers; settings: for Solubility in Water, as active substance: deionized water, 25 °C; for Solubility in Water, as active substance / Solubility in Phosphate Buffer pH = 5.4, as active substance / Solubility in Phosphate Buffer pH = 7.4, as active substance: AS = unmodified acid; for Solubility in Phosphate Buffer pH = 5.4, as active substance: pH 5.4, 25 °C; for Solubility in Phosphate Buffer pH = 7.4, as active substance: pH 7.4, 25 °C
From the text: This study aims to compare the influence of amino acid structure on the physicochemical properties of NSAID salts with the isopropyl ester of amino acids.

[7] = Thermogravimetric analysis (thermal stability); settings: air atmosphere, 10 °C min−1
Outline: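 Samples of 5–8 mg heated in Al2O3 crucibles under air (25 cm3 min−1) with nitrogen flow (10 cm3 min−1). Start of thermal degradation taken as the onset of the TG curve in the first decomposition phase.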

[8] = Solubility in organic solvents (modified Vogel's method); settings: 25 °C
[9] = 25 °C; cited from earlier work
[10] = solution transferred to disc 25 mg cm^−3
[11] = solution transferred to disc 50 mg cm^−3
[12] = solution transferred to disc 100 mg cm^−3
[13] = solution transferred to disc 200 mg cm^−3
[14] = solution transferred to disc 400 mg cm^−3
[15] = solution transferred to disc 600 mg cm^−3
[16] = solution transferred to disc 800 mg cm^−3
[17] = solution transferred to disc 1000 mg cm^−3
[18] = Escherichia coli, 24 h, solution transferred to disc 400 mg cm^−3, read-out: Inhibition diameter
[19] = Escherichia coli, 24 h, solution transferred to disc 600 mg cm^−3, read-out: Inhibition diameter
[20] = Micrococcus luteus, 24 h, solution transferred to disc 600 mg cm^−3, read-out: Inhibition diameter
[21] = Micrococcus luteus, 24 h, solution transferred to disc 800 mg cm^−3, read-out: Inhibition diameter

CC(C)Cc1ccc(C(C)C(=O)O)cc1.CC(C)OC(=O)C(N)C(C)C (mixture of isomers) [[L-ValOiPr][IBU]]
Inhibition diameter [1, 10]: 7.3 ± 0.2 mm
Inhibition diameter [1, 11]: 10.4 ± 0.1 mm
Inhibition diameter [1, 12]: 12.8 ± 0.2 mm
Inhibition diameter [1, 13]: 13.2 ± 0.2 mm
Inhibition diameter [1, 14]: 16.3 ± 0.3 mm
Inhibition diameter [1, 15]: 17.7 ± 0.3 mm
Inhibition diameter [1, 16]: 18.4 ± 0.2 mm
Inhibition diameter [1, 17]: 18.9 ± 0.3 mm
Inhibition diameter (Escherichia coli; [10]): -
Inhibition diameter (Escherichia coli; [11]): -
Inhibition diameter (Escherichia coli; [12]): -
Inhibition diameter (Escherichia coli; [13]): 6.2 ± 0.1 mm
Inhibition diameter (Escherichia coli; [14]): 6.3 ± 0.2 mm
Inhibition diameter (Escherichia coli; [15]): 6.8 ± 0.5 mm
Inhibition diameter (Escherichia coli; [17]): 7.1 ± 0.3 mm
TDTGmax, maximum decomposition temperature [2]: 215.5 [50] °C
Solubility in Phosphate Buffer pH = 5.4 ([3]; pH 5.4): 2.351 ± 0.027 [45] g dm^−3
Solubility in Phosphate Buffer pH = 5.4, as active substance ([3]; pH 5.4): 1.326 ± 0.027 [45] gAS dm^−3
Solubility in Phosphate Buffer pH = 7.4 ([3]; pH 7.4): 4.998 ± 0.018 [45] g dm^−3
Solubility in Phosphate Buffer pH = 7.4, as active substance ([3]; pH 7.4): 2.821 ± 0.018 [45] gAS dm^−3
Inhibition diameter (Micrococcus Luteus; [10]): 8.4 ± 0.3 mm
Inhibition diameter (Micrococcus Luteus; [11]): 9.1 ± 0.2 mm
Inhibition diameter (Micrococcus Luteus; [12]): 9.6 ± 0.1 mm
Inhibition diameter (Micrococcus Luteus; [13]): 10.5 ± 0.2 mm
Inhibition diameter (Micrococcus Luteus; [14]): 11.2 ± 0.2 mm
Inhibition diameter (Micrococcus Luteus; [15]): 11.7 ± 0.2 mm
Inhibition diameter (Micrococcus Luteus; [16]): 12.6 ± 0.3 mm
Inhibition diameter (Micrococcus Luteus; [17]): 13.2 ± 0.2 mm
Log(KS) formation constant [4]: 5.56

CC(C)OC(=O)[C@@H](N)[C@@H](C)O.O=C(O)c1ccccc1O [[L-ThrOiPr][SA], L-threonine isopropyl ester salicylate]
Inhibition diameter [1, 10]: -
Inhibition diameter [1, 11]: -
Inhibition diameter [1, 12]: -
Inhibition diameter [1, 13]: -
Inhibition diameter [1, 14]: -
Inhibition diameter [1, 15]: -
Inhibition diameter [1, 16]: -
Inhibition diameter [1, 17]: -
zone of inhibition at 400000 µg/mL (Escherichia coli; [18]): 7.3 ± 0.2 mm
zone of inhibition at 600000 µg/mL (Escherichia coli; [19]): 9.3 ± 0.4 mm
Inhibition diameter (Escherichia coli; [10]): -
Inhibition diameter (Escherichia coli; [11]): -
Inhibition diameter (Escherichia coli; [12]): -
Inhibition diameter (Escherichia coli; [13]): -
logP [5]: 1.55 ± 0.021
Solubility in Water, as active substance [6]: 17.925 ± 0.241 gAS dm^−3
Solubility in Phosphate Buffer pH = 5.4, as active substance [6]: 13.978 ± 0.018 gAS dm^−3
solubility thermodynamic ([6]; pH 5.4, aqueous buffer): 30.189 ± 0.018 mg/mL
Solubility in Phosphate Buffer pH = 7.4, as active substance [6]: 18.777 ± 0.125 gAS dm^−3
solubility thermodynamic ([6]; pH 7.4, aqueous buffer): 40.76 ± 0.125 mg/mL
solubility thermodynamic ([6]; water): 38.71 ± 0.241 mg/mL
TDTGmax, maximum decomposition temperature ([7]; DTG): 191.4 °C
TTGonset, the onset of the thermal degradation ([7]; TG): 127.2 °C
Solubility in Chloroform (39.1) [8]: ○ (soluble >100 mg cm^−3)
Solubility in DMSO (45.1) [8]: ○ (soluble >100 mg cm^−3)
Solubility in Dichloromethane (40.7) [8]: ○ (soluble >100 mg cm^−3)
Solubility in Diethyl Ether (34.5) [8]: ● (insoluble <33 mg cm^−3)
Solubility in Ethanol (59.1) [8]: ○ (soluble >100 mg cm^−3)
Solubility in Ethyl Acetate (38.1) [8]: ○ (soluble >100 mg cm^−3)
Solubility in Hexane (31.0) [8]: ● (insoluble <33 mg cm^−3)
Solubility in Toluene (33.9) [8]: ● (insoluble <33 mg cm^−3)
concentrations at which the antimicrobial effect was observed (Micrococcus Luteus; M. Luteus): in all tested concentration ranges
zone of inhibition at 25000 µg/mL (Micrococcus Luteus; Micrococcus luteus, 24 h, solution transferred to disc 25 mg cm^−3, read-out: Inhibition diameter): 6.3 ± 0.1 mm
zone of inhibition at 50000 µg/mL (Micrococcus Luteus; Micrococcus luteus, 24 h, solution transferred to disc 50 mg cm^−3, read-out: Inhibition diameter): 6.6 ± 0.2 mm
zone of inhibition at 100000 µg/mL (Micrococcus Luteus; Micrococcus luteus, 24 h, solution transferred to disc 100 mg cm^−3, read-out: Inhibition diameter): 7 ± 0.1 mm
zone of inhibition at 200000 µg/mL (Micrococcus Luteus; Micrococcus luteus, 24 h, solution transferred to disc 200 mg cm^−3, read-out: Inhibition diameter): 7.6 ± 0.2 mm
zone of inhibition at 400000 µg/mL (Micrococcus Luteus; Micrococcus luteus, 24 h, solution transferred to disc 400 mg cm^−3, read-out: Inhibition diameter): 8.1 ± 0.1 mm
zone of inhibition at 600000 µg/mL (Micrococcus Luteus; [20]): 8.7 ± 0.5 mm
zone of inhibition at 800000 µg/mL (Micrococcus Luteus; [21]): 10.2 ± 0.7 mm
Log(KS) formation constant [4]: 7.94

CC(C)OC(=O)C(N)C(C)C.O=C(O)c1ccccc1O [[L-ValOiPr][SA]]
zone of inhibition at 600000 µg/mL ([1]; Staphylococcus epidermidis, 24 h, solution transferred to disc 600 mg cm^−3, read-out: Inhibition diameter): 6.7 ± 0.3 mm
zone of inhibition at 800000 µg/mL ([1]; Staphylococcus epidermidis, 24 h, solution transferred to disc 800 mg cm^−3, read-out: Inhibition diameter): 8.4 ± 0.3 mm
Inhibition diameter [1, 10]: -
Inhibition diameter [1, 11]: -
Inhibition diameter [1, 12]: -
Inhibition diameter [1, 13]: -
Inhibition diameter [1, 14]: -
zone of inhibition at 50000 µg/mL (Escherichia coli; Escherichia coli, 24 h, solution transferred to disc 50 mg cm^−3, read-out: Inhibition diameter): 6.2 ± 0.1 mm
zone of inhibition at 100000 µg/mL (Escherichia coli; Escherichia coli, 24 h, solution transferred to disc 100 mg cm^−3, read-out: Inhibition diameter): 6.3 ± 0.2 mm
zone of inhibition at 200000 µg/mL (Escherichia coli; Escherichia coli, 24 h, solution transferred to disc 200 mg cm^−3, read-out: Inhibition diameter): 7.5 ± 0.1 mm
zone of inhibition at 400000 µg/mL (Escherichia coli; [18]): 8.9 ± 0.4 mm
zone of inhibition at 600000 µg/mL (Escherichia coli; [19]): 12.6 ± 0.3 mm
Inhibition diameter (Escherichia coli; [10]): -
TDTGmax, maximum decomposition temperature [2]: 197.6 [49] °C
TTGonset, the onset of the thermal degradation ([2]; TG): 124.6 [49] °C
logP [5]: 1.61 ± 0.057
Solubility in Water, as active substance [6]: 7.761 ± 2.044 gAS dm^−3
Solubility in Phosphate Buffer pH = 5.4, as active substance [6]: 5.259 ± 0.014 gAS dm^−3
solubility thermodynamic ([6]; pH 5.4, aqueous buffer): 11.32 ± 0.014 mg/mL
Solubility in Phosphate Buffer pH = 7.4, as active substance [6]: 8.702 ± 0.027 gAS dm^−3
solubility thermodynamic ([6]; pH 7.4, aqueous buffer): 18.73 ± 0.027 mg/mL
solubility thermodynamic ([6]; water): 16.7 ± 2.04 mg/mL
zone of inhibition at 600000 µg/mL (Micrococcus Luteus; [20]): 8.6 ± 0.3 mm
zone of inhibition at 800000 µg/mL (Micrococcus Luteus; [21]): 15.9 ± 1.2 mm
Inhibition diameter (Micrococcus Luteus; [10]): -
Inhibition diameter (Micrococcus Luteus; [11]): -
Inhibition diameter (Micrococcus Luteus; [12]): -
Inhibition diameter (Micrococcus Luteus; [13]): -
Inhibition diameter (Micrococcus Luteus; [14]): -
Solubility in Chloroform (39.1) [9]: ○ [49] (soluble >100 mg cm^−3)
Solubility in DMSO (45.1) [9]: ○ [49] (soluble >100 mg cm^−3)
Solubility in Dichloromethane (40.7) [9]: ○ [49] (soluble >100 mg cm^−3)
Solubility in Diethyl Ether (34.5) [9]: ◐ [49] (partially soluble 33–100 mg cm^−3)
Solubility in Ethanol (59.1) [9]: ○ [49] (soluble >100 mg cm^−3)
Solubility in Ethyl Acetate (38.1) [9]: ◐ [49] (partially soluble 33–100 mg cm^−3)
Solubility in Hexane (31.0) [9]: ● [49] (insoluble <33 mg cm^−3)
Solubility in Toluene (33.9) [9]: ○ [49] (soluble >100 mg cm^−3)
Log(KS) formation constant [4]: 7.03
